From patent publication US20240358862A1, “Synthesis Method and Application of a Near-infrared Probe GGa-ICG specific binding to PSCA” (Guangzhou Shiyun Biotechnology Co., Ltd, priority 2022, published 2024)

What was measured:
PSCA = molecular target: T1, PSCA (Homo sapiens, UniProt O43653); assay: Pull-down assay; type: binding; parameters: Membrane proteins of PC-3 cells were extracted; endogenous in cells; host or cells: PC-3; conditions: PC-3 membrane proteins, Western blotting with anti-PSCA antibody
T1 sequence (O43653 12-83): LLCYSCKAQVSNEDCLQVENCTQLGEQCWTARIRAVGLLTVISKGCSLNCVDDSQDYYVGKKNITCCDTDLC
Experimental: Membrane proteins of PC-3 cells were extracted and incubated with agarose beads, agarose-conjugated GGa-ICG, or an agarose-conjugated library. The resulting pull-down mixture containing proteins was analyzed by Western blotting using a PSCA-specific antibody. The captured proteins were analyzed by SDS-PAGE gel and Coomassie blue staining, followed by Western blotting using an anti-PSCA antibody.

[1] = tested on: prostate cancer cell lines; assay: Cell binding by fluorescence microscope / flow cytometry; type: cell-based, human; conditions: 200 nM probe
Experimental: Therefore, 200 nM of GGa-ICG and ssDNA-ICG were used to confirm their specific binding. The method is as follows: • a. The human prostate cancer cell lines PC-3, DU145, LNCaP, 22RV1, immortalized normal human prostate epithelial cell line RWPE1, and human cervical cancer cell line Hela, as well as MCF7 cells obtained from the American Type Culture Collection (ATCC), were used in this study. All cell lines were cultured at 37° C. and 5% CO2 in a humidified environment. […]
After the cells reach a confluency of over 80%, they were passaged and grown for 24-48 hours until they reached a confluency of over 50%. They were then washed once with PBS (without Ca and Mg ions), twice with cold washing buffer, and incubated at room temperature (4° C. for the internalization inhibition group) for 30 minutes with the sample buffer containing near-infrared fluorescence probes GGa-ICG, ssDNA-ICG, and ICG to a final concentration of 200 nM (or as specified). The cells were observed under a fluorescence microscope or analyzed by flow cytometry after digestion with trypsin without EDTA. […]

[2] = Fluorescence stability detection; type: physicochemical
Experimental: Stability testing was divided into two groups: 1) stability testing under excitation wavelength and 2) stability testing of GGa-ICG under visible light. Excitation wavelength of 780 nm (GGa-ICG, ssDNA-ICG, and ICG) and visible light were used to excite the fluorescence probe GGa-ICG. Fluorescence detection was performed, and the changes in fluorescence intensity were recorded using a fluorescence spectrophotometer.

GGa-ICG: near-infrared probe: PSCA-binding nucleic acid aptamer GGa linked at 3′ to an ICG derivative dye (DNA TGCCACTACAGCTGGTTCGGTTTGGTGACTTCGTTCTTCGTTGTGGT; 3'-ICG dye, further chemistry not given here)
pull-down of PSCA (PSCA): easily pulled down | binding affinity of PC3, VCap and LNCap cell lines relative to DU-145, 22RV1 cells [1]: stronger | specific binding to prostate cancer cell lines [1]: could specifically bind | time after which fluorescence was extinguished ([2]; after excitation at 780 nm): 1 h | fluorescence quenching under visible light excitation ([2]; visible light, during the detection time): did not exhibit fluorescence quenching
